The assay addresses T1, human neuropeptide Y5 receptor (Homo sapiens, UniProt Q15761).
T1 construct: expressed in transfected cells; membranes
T1 sequence (Q15761 1-445): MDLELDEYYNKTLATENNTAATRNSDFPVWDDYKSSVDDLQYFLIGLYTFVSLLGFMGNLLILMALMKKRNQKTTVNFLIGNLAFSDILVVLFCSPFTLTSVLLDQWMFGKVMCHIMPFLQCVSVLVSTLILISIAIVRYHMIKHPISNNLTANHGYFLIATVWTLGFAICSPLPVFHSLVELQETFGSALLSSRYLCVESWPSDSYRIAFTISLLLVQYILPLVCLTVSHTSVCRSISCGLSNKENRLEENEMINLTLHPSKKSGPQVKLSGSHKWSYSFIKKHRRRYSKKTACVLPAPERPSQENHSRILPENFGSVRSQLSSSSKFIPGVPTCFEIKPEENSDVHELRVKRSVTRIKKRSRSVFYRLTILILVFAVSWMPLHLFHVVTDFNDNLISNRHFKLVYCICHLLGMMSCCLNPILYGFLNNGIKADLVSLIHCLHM
In words: NPY5 HTS centrifugation assay: competition with 125I-PYY for binding to membranes of NPY5-transfected HEK293 cells. As to conditions: for % Inh @ 300 nM / inhibition at 0.3 µM: % inhibition of 125I-PYY binding at 300 nM compound; for % Inh @ 3 uM / inhibition at 3 µM: % inhibition of 125I-PYY binding at 3 uM compound; for inhibition at 0.3 µM: read-out: % Inh @ 300 nM. The method, then:
NPY5 HTS Centrifugation Assay
The compounds described in this invention were evaluated for binding to the human neuropeptide Y5 receptor.
The human NPY5 receptor cDNA (Genbank Accession number U66275) was inserted into the vector pClneo (Invitrogen) and transfected into human embryonic kidney cells (HEK-293) via calcium phosphate method (Cullen 1987). Stably transfected cells were selected with G-418 (600 μg/mL). Stably transfected cells served as the source for the membranes for the NPY5 receptor binding assay.
NPY5-transfected HEK293 cells were grown to confluence in 150 cm^2 culture dishes. Cells were washed once with phosphate-buffered saline (Gibco Cat# 14040-133). Cells were then incubated in phosphate-buffered saline without calcium and without magnesium, supplemented with 2 mM EDTA. Cells were incubated for 10 minutes at room temperature and the cells were collected by repetitive pipeting. Cells were formed into pellets and then frozen at −80° C. until needed. Frozen pellets were homogenized with a polytron at full speed for 12 seconds in a homogenization buffer (20 mM Tris HCl, 5 mM EDTA, pH 7.4). Homogenates were centrifuged for 5 minutes at 4° C. at 200 g. Supernatants were transferred to corex tubes and centrifuged for 25 minutes at 28,000 g. Pellets were re-suspended in Binding (20 mM HEPES, 10 mM NaCl, 0.22 mM KH2PO4, 1.3 mM CaCl2, 0.8 mM MgSO4, pH 7.4). Membranes were kept on ice until use.
A competition binding assay, known to those skilled in the art, was used in which compounds of formula A compete with ^125I-PYY for binding to cell membranes. In simple terms, the less ^125I-PYY bound to the membranes implies that a compound is a good inhibitor (competitor). Bound ^125I-PYY is determined by centrifugation of membranes, aspirating supernatant, washing away residual ^125I-PYY and subsequently counting the bound sample in a gcounter.
Compounds to be tested were prepared as 10× stocks in binding buffer and added first to assay tubes (RIA vials, Sarstedt). Twenty (20) μL of each 10× compound stock is pipeted into vials and 80 μL of ^125I-PYY (NEN catalog number NEX240), which has been diluted to a concentration of 200 pM in 0.25% BSA in binding buffer, is added to the compound tubes (final concentration of ^125I-PYY is 80 pM). To each tube is added 100 μL of membranes and the mixture is agitated by pipeting 2 times. Samples are incubated for 1 hr at room temperature. Aluminum cast plates (Sarstedt) containing the vials are then centrifuged 10 minutes at 3200 rpm in a Sorvall RT6000. Supernatant is then aspirated. To each vial 400 μL PBS is added and this is then aspirated again. Vials are then put in carrier polypropylene 12×75 tube and counted in gamma counter (Packard). Non-specific binding is determined in the presence of 300 nM NPY. Percent inhibition of ^125I-PYY binding is calculated by subtracting non-specific binding from the test samples (compound (I)), taking these counts and dividing by total binding, and multiplying by 100. Inhibitory concentration values (IC50) of compounds that show appreciable inhibition of ^125I-PYY binding are calculated by obtaining percent inhibition of ^125I-PYY binding values at different concentrations of the test compound, and using a graphing program such as GraphPad Prism (San Diego, Calif.) to calculate the concentration of test compound that inhibits fifty-percent of ^125I-PYY binding (Table 4).

The structures appear in SMILES notation.

Turning to `COc1ccc2c(c1)CC[C@@H]1N=C(NC(=O)[C@H]3CC[C@H](CNS(=O)(=O)c4ccccc4)CC3)C[C@H]21` (relative stereo) [Compound 7, trans-4-[[(Phenylsulfonyl)amino]methyl]-N-(cis-3a,4,5,9b-tetrahydro-7-methoxy-1H-benz[e]indol-2-yl)cyclohexanecarboxamide], the “% Inh @ 300 nM” value (0.3 µM) came to 82%. The “% Inh @ 3 uM” value (3 µM) came out at 98%.
As for `O=C(NC1=N[C@H]2CCc3cc(O)ccc3[C@H]2C1)[C@H]1CC[C@H](CNS(=O)(=O)c2ccccc2)CC1` (relative stereo) [Compound 9, trans-4-[[(Phenylsulfonyl)amino]methyl]-N-(cis-3a,4,5,9b-tetrahydro-7-hydroxy-1H-benz[e]indol-2-yl)cyclohexanecarboxamide], the inhibition at 0.3 µM is 97% and the inhibition at 3 µM came to 97%.
For the compound `O=C(NC1=N[C@H]2CCc3ccccc3[C@H]2C1)[C@H]1CC[C@H](CNS(=O)(=O)c2ccccc2)CC1` (relative stereo) [Compound 13, trans-4-[[(Phenylsulfonyl)amino]methyl]-N-(cis-3a,4,5,9b-tetrahydro-1H-benz[e]indol-2-yl)cyclohexanecarboxamide], the inhibition at 0.3 µM is 80% and the inhibition at 3 µM worked out at 100%.
In the case of `O=S(=O)(NC[C@H]1CC[C@H](CNC2=N[C@H]3CCc4ccccc4[C@H]3C2)CC1)c1ccccc1` (relative stereo) [Compound 14, N-[[trans-4-[[(cis-3a,4,5,9b-tetrahydro-1 H-benz[e]indol-2-yl)amino]methyl]cyclohexyl]methyl]benzenesulfonamide], the inhibition at 0.3 µM worked out at 89% and the inhibition at 3 µM was 93%.
Consider `O=C(NC1=N[C@H]2CCc3cc(F)ccc3[C@H]2C1)[C@H]1CC[C@H](CNS(=O)(=O)c2ccccc2)CC1` (relative stereo) [Compound 15, trans-4-[[(Phenylsulfonyl)amino]methyl]-N-(cis-3a,4,5,9b-tetrahydro-7-fluoro-1H-benz[e]indol-2-yl)cyclohexanecarboxamide], for which the inhibition at 0.3 µM is 89% and the inhibition at 3 µM was found to be 100%.
Take `O=S(=O)(NC[C@H]1CC[C@H](CNC2=N[C@H]3CCc4cc(F)ccc4[C@H]3C2)CC1)c1ccccc1` (relative stereo) [Compound 16, N-[[trans-4-[[(cis-3a,4,5,9b-tetrahydro-7-fluoro-1H-bnz[ ]indol-2-yl)amino]methyl]cyclohexyl]methyl]benzenesulfonamide]: the “% Inh @ 300 nM” value amounted to 76% and the “% Inh @ 3 uM” value is listed as 100%.
For the compound `O=C(NC1=N[C@H]2CCc3cc(Cl)ccc3[C@H]2C1)[C@H]1CC[C@H](CNS(=O)(=O)c2ccccc2)CC1` (relative stereo) [Compound 17, trans-4-[[(Phenylsulfonyl)amino]methyl]-N-(cis-3a,4,5,9b-tetrahydro-7chloro-1H-benz[e]indol-2-yl)cyclohexanecarboxamide], the inhibition at 0.3 µM was found to be 86% and the inhibition at 3 µM was determined as 107%.
In the case of `O=S(=O)(NC[C@H]1CC[C@H](CNC2=N[C@H]3CCc4cc(Cl)ccc4[C@H]3C2)CC1)c1ccccc1` (relative stereo) [Compound 18, N-[[trans-4-[[(cis-3a,4,5,9b-tetrahydro-7-chloro-1H-benz[e]indol-2-yl)amino]methyl]cyclohexyl]methyl]benzenesulfonamide], the inhibition at 0.3 µM was 90% and the inhibition at 3 µM was 109%.
Take `COc1ccc2c(c1)CC[C@@H]1N=C(NC(=O)[C@H]3CC[C@H](CNS(=O)(=O)c4ccccc4)CC3)C[C@H]21` (relative stereo) [Compound 19, trans-4-[[(Phenylsulfonyl)amino]methyl]-N-(cis-3a,4,5,9b-tetrahydro-7-methoxy-1H-benz[e]indol-2-yl)cyclohexanecarboxamide]: the inhibition at 0.3 µM was determined as 80% and the inhibition at 3 µM was determined as 99%.
Take `O=C(CN1CCC(n2c(=O)[nH]c3ccccc32)CC1)NC1=N[C@@H]2CCc3ccccc3[C@@H]2C1` [Compound 11]: the inhibition at 0.3 µM worked out at 48% and the inhibition at 3 µM amounted to 85%.
For the compound `COc1ccc2c(c1)CCC1N=C(NCCN3CCC(n4c(=O)[nH]c5ccccc54)CC3)CC21` (centres unmarked) [Compound 12], the “% Inh @ 300 nM” value stood at 9% and the “% Inh @ 3 uM” value was 53%.
As for `COc1ccc2c(c1)CCC1NC(N)(C(=O)CN3CCC(n4c(=O)[nH]c5ccccc54)CC3)CC21` (centres unmarked) [Compound 20, 2-[[4-(2,3-Dihydro-2-oxo-1H-benzimidazol-1-yl)-1-piperidinyl]acetyl]-[3a,4,5,9b-tetrahydro-7-methoxy-1H-benzo[e]indol-2-yl]-amine], the inhibition at 0.3 µM turned out to be 0% and the inhibition at 3 µM came to 50%.
As to `NC1(C(=O)CN2CCC(n3c(=O)[nH]c4ccccc43)CC2)CC2c3ccc(O)cc3CCC2N1` (centres unmarked) [Compound 21, 2-[[4-(2,3-Dihydro-2-oxo-1H-benzimidazol-1-yl)-1-piperidinyl]acetyl]-[3a,4,5,9b-tetrahydro-7-hydroxy-1H-benzo[e]indol-2-yl]-amine], the inhibition at 0.3 µM was 20% and the inhibition at 3 µM amounted to 78%.

Source of the values: patent publication US6841552B1, “3a,4,5,9b-tetrahydro-1H-benz[e]indol-2-yl amine-derived neuropeptide Y receptors ligands useful in the treatment of obesity and other disorders” (Ortho-McNeil Pharmaceutical, Inc., priority 1999, dated 2005).
